# Publication PMC8305651 (International Journal of Molecular Sciences, 2021)
# Target: wild-type PA-Nter (Influenza A virus, UniProt C3W5S0, DEL51-57/DEL61-72/E59G)
# Format: biochemical, influenza A/California/07/2009 (H1N1)
compound,measurement,value
O=c1cc(-c2ccc(O)c(O)c2)oc2c([C@@H]3O[C@H](CO)[C@@H](O)[C@H](O)[C@H]3O)c(O)cc(O)c12 [orientin],"inhibition of endonuclease activity, gel-based assay (qualitative)",higher inhibitory potency than luteolin
